Measured values reported in ChEMBL document CHEMBL1156115, “The design of potent and selective inhibitors of DPP-4: optimization of ADME properties by amide replacements” (Bioorg Med Chem Lett, 2009).
pIC50: −log10 of the molar value. Activity calls are given as the source filed them. No cut-off for these calls is given here.

Assays:
Dipeptidyl peptidase 2 = Dipeptidyl peptidase 2 (Homo sapiens, UniProt Q9UHL4); test: Inhibition of DPP7
Prolyl endopeptidase = target: T1, Prolyl endopeptidase (Homo sapiens, UniProt P48147); test: Inhibition of human POP expressed in Escherichia coli after 30 mins by continuous fluorescent assay
T1 sequence (P48147 whole entry): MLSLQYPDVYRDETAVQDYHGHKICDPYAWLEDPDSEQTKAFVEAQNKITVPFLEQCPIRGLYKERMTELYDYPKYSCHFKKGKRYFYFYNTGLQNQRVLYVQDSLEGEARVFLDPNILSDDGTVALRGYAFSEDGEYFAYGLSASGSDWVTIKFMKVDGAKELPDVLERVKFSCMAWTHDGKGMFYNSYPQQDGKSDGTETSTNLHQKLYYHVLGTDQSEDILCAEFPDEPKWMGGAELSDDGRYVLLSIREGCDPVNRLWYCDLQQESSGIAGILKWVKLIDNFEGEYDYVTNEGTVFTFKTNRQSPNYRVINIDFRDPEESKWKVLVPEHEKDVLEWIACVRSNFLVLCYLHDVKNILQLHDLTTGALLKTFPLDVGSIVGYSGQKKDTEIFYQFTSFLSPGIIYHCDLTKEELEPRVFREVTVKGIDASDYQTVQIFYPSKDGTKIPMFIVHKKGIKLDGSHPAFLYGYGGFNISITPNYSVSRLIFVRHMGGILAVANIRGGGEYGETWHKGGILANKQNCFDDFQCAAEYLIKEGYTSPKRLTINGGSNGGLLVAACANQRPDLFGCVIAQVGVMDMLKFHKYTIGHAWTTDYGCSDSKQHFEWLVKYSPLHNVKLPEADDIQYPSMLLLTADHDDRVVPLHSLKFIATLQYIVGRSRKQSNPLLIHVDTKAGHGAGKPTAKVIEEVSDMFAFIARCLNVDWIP

[1] = Distribution coefficient, log D of the compound; type: physicochemical; details: octanol/water
[2] = (§1) Apparent permeability from apical to basolateral side of human Caco-2 cells; type: ADME, cell-based
[3] = (§2) Apparent permeability from basolateral to apical side of human Caco-2 cells; type: ADME, cell-based
[4] = Half life in human liver microsomes at 3 uM; type: ADME, Microsome
[5] = Half life in rat liver microsomes at 3 uM; type: ADME, Microsome
[6] = Half life in Wistar rat at 1 mg/kg, iv or 3 mg/kg, po; type: ADME, organism-based; details: in vivo
[7] = Clearance in Wistar rat at 1 mg/kg, iv or 3 mg/kg, po; type: ADME, organism-based; details: in vivo
[8] = Apparent volume of distribution in Wistar rat at 1 mg/kg, iv or 3 mg/kg, po; type: ADME, organism-based; details: in vivo, read-out: Vz
[9] = Oral bioavailability in Wistar rat at 3 mg/kg; type: ADME, organism-based; details: in vivo
Mus musculus = test: Antihyperglycemic activity in obese mouse diabetic model assessed as reduction in peak glucose excursion at 3 mg/kg, po administered 30 mins before glucose challenge by oral glucose tolerance test; type: functional, organism-based; design: dose 3 mg/kg
[10] = target: Dipeptidyl peptidase 4 (Mus musculus) (UniProt P28843); test: Inhibition of DPP4 in mouse plasma up to 60 mins; type: cell-free
Sequence of Dipeptidyl peptidase 4 (Mus musculus) (P28843 whole entry, looked up): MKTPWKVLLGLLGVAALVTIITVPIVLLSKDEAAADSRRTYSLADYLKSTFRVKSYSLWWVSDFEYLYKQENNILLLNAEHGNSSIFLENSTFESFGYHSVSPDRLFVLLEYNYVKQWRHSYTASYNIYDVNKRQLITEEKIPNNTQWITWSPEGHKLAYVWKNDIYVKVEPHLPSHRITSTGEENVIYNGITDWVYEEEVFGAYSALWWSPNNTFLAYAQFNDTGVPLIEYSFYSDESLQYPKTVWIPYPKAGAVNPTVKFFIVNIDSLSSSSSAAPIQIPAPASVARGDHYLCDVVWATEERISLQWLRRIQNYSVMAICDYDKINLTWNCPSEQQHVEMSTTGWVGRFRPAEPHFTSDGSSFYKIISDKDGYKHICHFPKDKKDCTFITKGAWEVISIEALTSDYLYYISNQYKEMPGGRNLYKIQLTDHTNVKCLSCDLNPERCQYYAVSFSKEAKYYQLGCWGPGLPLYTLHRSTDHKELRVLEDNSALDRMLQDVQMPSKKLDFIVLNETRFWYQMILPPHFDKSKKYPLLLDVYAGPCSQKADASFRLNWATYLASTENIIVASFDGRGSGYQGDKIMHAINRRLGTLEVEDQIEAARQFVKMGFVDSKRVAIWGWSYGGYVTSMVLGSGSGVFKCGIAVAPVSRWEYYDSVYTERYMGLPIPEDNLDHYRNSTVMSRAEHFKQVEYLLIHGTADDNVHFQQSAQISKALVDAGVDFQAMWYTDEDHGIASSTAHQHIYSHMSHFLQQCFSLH

[11] = target: Dipeptidyl peptidase 4 (Mus musculus) (UniProt P28843); test: Inhibition of DPP4 in mouse plasma up to 180 mins; type: cell-free
Caco-2 [12] = test: as §1; type: ADME, cell-based
Caco-2 [13] = test: as §2; type: ADME, cell-based

Structure (SMILES) | pIC50 (Dipeptidyl peptidase 2) | pIC50 (Prolyl endopeptidase) | logD [1] | half-life at 3 µM [4] [h] | half-life at 3 µM [5] [h] | further results
N[C@@H](CC(=O)N1CCC[C@H]1c1nc(-c2ncccn2)no1)Cc1cc(F)c(F)cc1F | 5.66 | – | – | – | – | –
CC1(c2nc([C@@H]3CCCN3C(=O)C[C@H](N)Cc3cc(F)c(F)cc3F)no2)COC1 | 4.42 | < 4.00 | – | – | – | –
N[C@@H](CC(=O)N1CCC[C@H]1c1noc(C2CC2)n1)Cc1cc(F)c(F)cc1F | 4.96 | < 4.00 | – | – | – | –
CC(C)(C)c1noc([C@@H]2CCCN2C(=O)C[C@H](N)Cc2cc(F)c(F)cc2F)n1 | 5.15 | 4.41 | 1.85 | 1.33 | 0.133 | Papp A→B [2]: 20 ×10⁻⁶ cm/s; Papp B→A [3]: 49 ×10⁻⁶ cm/s; half-life [6]: 1.6 h; clearance [7]: 120 mL/min/kg; Vd [8]: 20.5 L/kg; bioavailability [9]: 3%
N[C@@H](CC(=O)N1CCC[C@H]1c1nc(C2CC2)no1)Cc1cc(F)c(F)cc1F | 5.42 | – | 1.61 | > 2 | 1.18 | Papp A→B [2]: 21 ×10⁻⁶ cm/s; Papp B→A [3]: 52 ×10⁻⁶ cm/s
N[C@@H](CC(=O)N1CCC[C@H]1c1nc(-c2ccccn2)no1)Cc1cc(F)c(F)cc1F | 6.05 | – | – | – | – | –
CC(C)(C)c1nc([C@@H]2CCCN2C(=O)C[C@H](N)Cc2cc(F)c(F)cc2F)no1 | 4.44 | < 4.00 | – | – | – | –
N[C@@H](CC(=O)N1CCC[C@H]1c1nc(C2(C(F)(F)F)CC2)no1)Cc1cc(F)c(F)cc1F | 5.55 | – | – | – | – | –
N[C@@H](CC(=O)N1CCC[C@H]1c1noc(C2(F)CC2)n1)Cc1cc(F)c(F)cc1F | 4.85 | – | – | – | – | –
N[C@@H](CC(=O)N1CCC[C@H]1c1nc(-c2ncc(F)cc2F)no1)Cc1cc(F)c(F)cc1F | 5.70 | < 4.00 | 1.32 | > 2 | > 2 | Papp A→B [2]: 3 ×10⁻⁶ cm/s; Papp B→A [3]: 73 ×10⁻⁶ cm/s; half-life [6]: 2.4 h; clearance [7]: 100 mL/min/kg; Vd [8]: 17.7 L/kg; bioavailability [9]: 56%; Activity (Mus musculus): Active; inhibition [10]: 79%; inhibition [11]: 64%
N[C@@H](CC(=O)N1CCC[C@H]1c1nc(N2CCCC2)no1)Cc1cc(F)c(F)cc1F | 5.49 | < 4.00 | – | – | – | –
N[C@@H](CC(=O)N1CCC[C@H]1c1nc(CC2CC2)no1)Cc1cc(F)c(F)cc1F | 5.40 | < 4.00 | – | – | – | –
N[C@@H](CC(=O)N1CCC[C@H]1c1nc(N2CCOCC2)no1)Cc1cc(F)c(F)cc1F | 5.25 | < 4.00 | – | – | – | –
N[C@@H](CC(=O)N1CCC[C@H]1c1noc(C2(C(F)(F)F)CC2)n1)Cc1cc(F)c(F)cc1F | 5.00 | – | 2.16 | > 2 | 1 | Papp A→B [2]: 23 ×10⁻⁶ cm/s; Papp B→A [3]: 49 ×10⁻⁶ cm/s; half-life [6]: 2.3 h; clearance [7]: 115 mL/min/kg; Vd [8]: 17.5 L/kg; bioavailability [9]: 43%
CS(=O)(=O)N1CC(c2noc([C@@H]3CCCN3C(=O)C[C@H](N)Cc3cc(F)c(F)cc3F)n2)C1 | 5.42 | – | 0.96 | > 2 | > 2 | Papp (Caco-2 [12]): 0.15 ×10⁻⁶ cm/s; Papp (Caco-2 [13]): 28 ×10⁻⁶ cm/s
CC(C)(F)c1nc([C@@H]2CCCN2C(=O)C[C@H](N)Cc2cc(F)c(F)cc2F)no1 | 4.80 | < 4.00 | 1.46 | > 2 | 1.7 | Papp A→B [2]: 14 ×10⁻⁶ cm/s; Papp B→A [3]: 62 ×10⁻⁶ cm/s; half-life [6]: 1 h; clearance [7]: 31.7 mL/min/kg; Vd [8]: 2.9 L/kg; bioavailability [9]: 100%; Activity (Mus musculus): Active; inhibition [10]: 70%; inhibition [11]: 56%
N[C@@H](CC(=O)N1CCC[C@H]1c1nc(-c2cnccn2)no1)Cc1cc(F)c(F)cc1F | 5.64 | < 4.00 | – | – | – | –
N[C@@H](CC(=O)N1CCC[C@H]1c1noc(C2(O)CC2)n1)Cc1cc(F)c(F)cc1F | 4.64 | – | – | – | – | –
CC(=O)N1CC(c2noc([C@@H]3CCCN3C(=O)C[C@H](N)Cc3cc(F)c(F)cc3F)n2)C1 | 4.77 | – | – | – | – | –
